Consider 14 molecules from US5574059A, “Treating disorders mediated by vascular smooth muscle cell proliferation” (priority 1995, dated 1996).

The structures appear in SMILES notation. Entries after “also recorded” stand apart in the source; their conditions may differ. Some results are limits rather than exact numbers.

Test [1] deals with I2 imidazoline receptors. As to the kind of experiment: inhibition of 3H-idazoxan (5 nM) binding to rat aortic smooth muscle cell membranes. Conditions: for inhibition of 3H-idazoxan binding, in words / Ki: 3H-idazoxan 5 nM; for Ki: Table 2, rat aortic smooth muscle cell membranes, read-out: Ki. As to the method:
(§1) Binding to I2 imidazoline receptors is determined by the following assay. Membranes are prepared from cultured cells for ligand binding as described in Regunathan, S., et al, Biochem. Pharmacol. 45, 1667-1675 (1993) and Regunathan, S., et al, J. Neurosci. Res. 34, 681-688 (1993) and the disclosure in these on this is incorporated herein by reference. In particular, harvested rat aortic smooth muscle cells are homogenized in Hepes-sucrose buffer (pH 7.4) with a Teflon-glass homogenizer and centrifuged at 1000 × g for 10 minutes. The pellets are suspended in ice-cold Tris-HCl buffer (pH 7.7) with 5mM ethylene diamine tetracetic acid and homogenized using a Polytron (Brinkman Instruments) for 10 seconds. The homogenate is centrifuged at 40,000 × g for 30 minutes to produce a membrane pellet. The membrane pellet is washed three times by resuspending in buffer and re-centrifuging. The washed pellet is suspended in fresh Tris-HCl buffer (pH 7.4) to provide approximately 100 μg protein per assay tube. Binding assays are performed in Tris-HCl buffer (pH 7.7) using 5 nM of […]. Non-specific binding is defined by 100 μM of unlabelled idazoxan which will inhibit the specific binding of ^3 H-idazoxan. Thus the binding remaining in the presence 100 μM of idazoxan is due to non-specific binding and this will be substracted from total binding to calculate the specific binding. Following incubation at 25° C. for 30 minutes, reaction is terminated by rapid vacuum filtration over Whatman GF/B filters and washed with 10 ml of ice-cold buffer. Filters are suspended in scintillation fluid and radioactivity counted in a liquid scintillation counter. Membrane protein is assayed by Coomassie Blue method (Pierce) using bovine serum albumin as standard.
Determination of inhibition constant (Ki) for each drug is determined as follows: The binding of ^3 H-idazoxan to membranes of vascular smooth muscle cells is determined in the presence of 0.1 nM to 100 μM concentrations of potential drug. The percent inhibition of specific binding of ^3 H-idazoxan by each concentration is calculated and plotted against concentration. The data is analyzed by non-linear curve fitting program, LIGAND and the IC50 value for each potential drug is calculated. The affinity for each drug (Ki) for I2 imidazoline receptors is calculated using the formula Ki =IC50 /1+L/Kd where L is the concentration of ^3 H-idazoxan used for binding and Kd is the dissociation constant for ^3 H-idazoxan for I2 imidazoline receptors. The dissociation constant (Kd) is determined by Scatchard analysis of the saturation binding of ^3 H-idazoxan using the formula [formula] where B and F are the amount of bound and free ligand, respectively, and Bmax is the number of binding sites.
(§2) Primary cultures of rat-aortic smooth muscle cells were prepared by a modification (described in Erlinge, Do, et al, Am. J. Physiol. 265, H1089-1097, 1993) of the method of Meyer-Lehnert and Schrier (Meyer-Lehnert, H., et al, Hypertension 13,350-361, 1989), the disclosure of these cited articles being incorporated herein by reference. Briefly, rats were killed by anesthetic overdose and the aorta were removed and incubated with collagenase (2 mg/ml) in Dulbecco's modified Eagle's minimum essential medium (DMEM). The vessel was stripped of adventitia, cut longitudinally and the intima scraped away. After further collagenase treatment, the remaining tissue was passed 20 times through 18 and 16 gauge needles. The resulting cell suspension was centrifuged at 500 × g for 5 minutes and resuspended in DMEM containing penicillin (100 units/ml), streptomycin (100 μg/ml), 2 mM L-glutamine and 10% fetal calf serum. The suspended cells were plated in T-75 flasks, cultured until confluent, and subcultured in 100 mm plates. The confluent cells were harvested and membranes were prepared. Cell viability was determined by trypan blue exclusion.

Test [2] relates to rat aortic smooth muscle cells. As to the kind of experiment: serum-stimulated proliferation, 3H-thymidine incorporation into DNA. In kind it is cell-based. Conditions: 10% fetal calf serum stimulated; for IC50: Rattus norvegicus, read-out: 3H-thymidine incorporated (IC50); for IC50 / 3H-thymidine incorporated (IC50), N symbol: 24 h. The protocol:
(§3) Inhibition of serum-stimulated proliferation of rat aortic smooth muscle cells is determined as follows: The antiproliferative effect of potential drug is determined by measuring the incorporation of ^3 H-thymidine into cellular DNA. Exposure of quiescent vascular smooth muscle cell to serum, which contains many growth factors, results in a large increase in cellular proliferation as measured by ^3 H-thymidine incorported into DNA. The inhibitory effect of potential drug on serum-stimulated proliferation is tested by adding a drug before the addition of serum and determining if the serum-stimulated proliferation is reduced. […] In that event, antagonizing of the antiproliferative effect of idazoxan is determined by adding antagonist before the addition of idazoxan to serum-stimulated vascular smooth muscle cells.
In this experiment, the proliferation of vascular smooth muscle cells was determined by measuring DNA replication. The incorporation of ^3 H-thymidine into DNA was used to measure the replication of DNA as described in Erlinge, D., et al, Am. J. Physiol. 265, H1089-H1097 (1993) which is incorporated herein by reference.
(§4) Rat aortic smooth muscle cells prepared as described in In Vitro Example 1 were plated into 24-well plates at a density of about 30,000 cells/well in 10% fetal calf serum (FCS). After 48 hours, the cells were starved in 0.5% FCS for another 48 hours to decrease proliferation and induce quiescence. The medium was replaced by serum-free medium 24 hours prior to addition of drug (drugs are described below) and 10% fetal calf serum or only 10% fetal calf serum in the case of the control. The cells were then incubated for 24 hours and ^3 H-thymidine (1 μCi/well) was added at hour 20. At the end of the 24 hour period, the medium was aspirated and the cells were washed three times with phosphate-buffered saline and twice with ice-cold trichloroacetic acid. Fixed cells were then solubilized in 0.2M NaOH and sonicated. A 100 μl aliquot was used for scintillation counting.
(In general: Incorporation of labelled thymidine or its analogues reports DNA synthesis.)

For the next test, the system named is α2 -adrenergic receptors. As to the kind of experiment: specific binding of 3H-PAC and 3H-rauwolscine to smooth muscle cell membranes. The arrangement: species or system rat. Conditions: for specific binding of 3H-PAC / 3H-rauwolscine: 5 nM ligand, non-specific binding defined by 100 μM cold ligand; for binding selectivity of radioligand, in words (α2-adrenergic receptors): with epinephrine competition. The protocol: as §2, with “exclusion. Smooth muscle cells were phenotypically defined by immunostaining with anti-smooth muscle actin (Sigma). The cultured cells were usually used for only about 10 passages after which they were replaced by freshly prepared cells.” for “exclusion.”
Membranes were prepared from the cultured cells as described in Regunathan et al, Biochem. Pharmacol. 45, 1667-1675 (1993). Membranes were incubated with 5 nM of ^3 H-idazoxan, ^3 H-PAC or ^3 H-rauwolscine with non-specific binding defined by 100 μM cold ligand as described above.

Test [3] relates to rat aortic smooth muscle cells. As to the kind of experiment: antagonism of the antiproliferative effect in serum-stimulated smooth muscle cells. In kind it is cell-based. The protocol:
as §3
as §4, with “After” for “Rat aortic smooth muscle cells prepared as described in In Vitro Example 1 were plated into 24-well plates at a density of about 30,000 cells/well in 10% fetal calf serum (FCS). After”
To test this, the effect of tolazoline (100 μM) on the concentration/response curve was determined.

Test [4] deals with I2 imidazoline receptors. As to the kind of experiment: saturation/specific binding of 3H-idazoxan to smooth muscle cell membranes (Scatchard analysis). The arrangement: species or system rat. The protocol: as §1, with “Membrane protein is assayed by Coomassie Blue method (Pierce) using bovine serum albumin as standard.” left out
Primary cultures of rat-aortic smooth muscle cells were prepared by a modification (described in Erlinge, Do, et al, Am. J. Physiol. 265, H1089-1097, 1993) of the method of Meyer-Lehnert and Schrier (Meyer-Lehnert, H., et al, Hypertension 13,350-361, 1989), the disclosure of these cited articles being incorporated herein by reference. […] Cell viability was determined by trypan blue exclusion.

As for `N=C(N)NC(=O)c1nc(Cl)c(N)nc1N` [Amiloride], in the test with I2 imidazoline receptors [1], the “inhibition of 3H-idazoxan binding, in words” value is given as “low” and the Ki is 75 ± 9.6 µM.

In the case of `c1ccc(C2CC2)c(OCC2=NCCN2)c1` [Cirazoline, cyclopropyl phenoxy imidazoline], the half-maximal inhibitory concentration (IC50) in test [2] stood at 286 ± 19 µM.

`Clc1cccc(Cl)c1N=C1NCCN1` [Clonidine]: in test [2], the “inhibition of vascular smooth muscle cell proliferation, in words” value was “had no effect” and the “3H-thymidine incorporated (IC50), N symbol” value (“3H-thymidine incorporated” below) is “N”. In the test with I2 imidazoline receptors [1], the Ki is 2.5 ± 0.65 µM.

Turning to `CNC[C@H](O)c1ccc(O)c(O)c1` [Epinephrine], in the test on I2 imidazoline receptors [1] (even at 100 μM epinephrine, failed to reduce by greater than), the “reduction of 3H-idazoxan binding” value is recorded as not above 10%. Besides, in the test on α2 -adrenergic receptors (epinephrine 10 μM), the “inhibition of specific binding of 3H-PAC” value was “completely inhibited” and the “inhibition of specific binding of 3H-rauwolscine” value is listed as “completely inhibited”.

On to `N=C(N)N/N=C/c1c(Cl)cccc1Cl` [Guanabenz], for which, in the test on I2 imidazoline receptors [1], the “inhibition of 3H-idazoxan binding, in words” value is reported as “low” and the Ki was determined as 51 ± 6.5 µM.

Consider `COc1nc(C)nc(Cl)c1N=C1NCCN1` [Moxonidine], for which, in test [2], the “inhibition of vascular smooth muscle cell proliferation, in words” value is recorded as “had no effect” and the “3H-thymidine incorporated” value was “N”. In the test on I2 imidazoline receptors [1], the “inhibition of 3H-idazoxan binding, in words” value is “low” and the Ki is 55 ± 4 µM.

On to `c1ccc2c(CC3=NCCN3)cccc2c1` [Naphazoline, 2-(1-naphthylmethyl) imidazoline], for which the IC50 in test [2] stood at 52.3 ± 5.6 µM.

With `Cc1ccc(N(CC2=NCCN2)c2cccc(O)c2)cc1` [Phentolamine], the “3H-thymidine incorporated” value in test [2] is recorded as “N”. The Ki in the test on I2 imidazoline receptors [1] was 10.5 ± 1.4 µM.

For the molecule `COC(=O)[C@H]1[C@H]2C[C@H]3c4[nH]c5ccccc5c4CCN3C[C@H]2CC[C@@H]1O` [Rauwolscine], the “effect of rauwolscine on the anti-proliferative response” value in test [3] was “blocked”. In test [2], the “inhibition of vascular smooth muscle cell proliferation, in words” value was “had no effect” and the “3H-thymidine incorporated” value is recorded as “N”. In the test with I2 imidazoline receptors [1], the “inhibition of 3H-idazoxan binding, in words” value is given as “without effect” and the Ki is more than 100 µM.

Turning to `C1COC(NC(C2CC2)C2CC2)=N1` [Rilmenidine], in test [2], the “inhibition of vascular smooth muscle cell proliferation, in words” value is “had no effect” and the “3H-thymidine incorporated” value was “N”. In addition, in the test on I2 imidazoline receptors [1], the “inhibition of 3H-idazoxan binding, in words” value is reported as “low” and the Ki came to 85 ± 9 µM.

Take `c1ccc(CC2=NCCN2)cc1` [Tolazoline]: the “effect on the concentration/response curve for idazoxan” value in test [3] (tolazoline 100 μM) is on record as “markedly shifted the concentration/response curve for idazoxan to the right”. In addition, in test [2], the “inhibition of vascular smooth muscle cell proliferation, in words” value is given as “without any effect; also recorded: failed to inhibit cellular proliferation” and the “3H-thymidine incorporated” value is on record as “N”. Further, in the test on I2 imidazoline receptors [1], the “inhibition of 3H-idazoxan binding, in words” value is on record as “binding with high affinity” and the Ki is 0.256 ± 0.023 µM.

In the case of `Nc1cc(Cl)c(NC2=NCCN2)c(Cl)c1` [^3 H-PAC], in the test on α2 -adrenergic receptors, the “specific binding of 3H-PAC / 3H-rauwolscine” value was “greater than 70%” and the “binding selectivity of radioligand, in words (α2-adrenergic receptors)” value is reported as “primarily bind to α2 -adrenergic receptors”.

Consider `c1ccc2c(c1)OCC(C1=NCCN1)O2` (stereo not drawn) [^3 H-idazoxan], for which the “specific binding of 3H-idazoxan” value in the test with I2 imidazoline receptors [4] (5 nM ligand, non-specific binding defined by 100 μM cold ligand) is given as “greater than 70%”. For the same molecule, the Kd in the test with I2 imidazoline receptors [4] (Scatchard analysis, single-site fit, in presence of 10 μM epinephrine) worked out at 0.0089 ± 0.0012 µM. In addition, the “binding selectivity of radioligand, in words (non-adrenergic sites)” value in the test on I2 imidazoline receptors [4] (with epinephrine competition) is “binds almost exclusively to non-adrenergic sites”.

`COC(=O)C1C(O)CCC2CN3CCc4c([nH]c5ccccc45)C3CC21` (stereo not drawn) [^3 H-rauwolscine]: in the test with α2 -adrenergic receptors, the “specific binding of 3H-PAC / 3H-rauwolscine” value is listed as “greater than 70%” and the “binding selectivity of radioligand, in words (α2-adrenergic receptors)” value was “primarily bind to α2 -adrenergic receptors”.

As a reminder, the Ki is the dissociation constant of the complex between target and ligand, obtained from inhibition or displacement. The IC50 is the point on the concentration scale where inhibition reaches its midpoint. Usually Kd stands for a measure of binding affinity in units of concentration.
